Measured values as given in patent publication US8304202B2, “Interaction of BIM with TRIM2” (priority 2007, dated 2012).
pEC50: −log10 of the molar value. Entries after “also recorded” stand apart in the source; their conditions may differ. Like-named read-outs stand apart in the source and are kept apart here. Residues, ends and D or L forms follow the SMILES beside them. *: point of attachment. Cbz = O=C(OCc1ccccc1)*

Key:
[1] = test system: rat cortical neuronal cultures; experiment: Rapid ischemic tolerance: cell death after harmful ischemia (OGD) with preconditioning ischemia, propidium iodide staining; type: cell-based; conditions: for neuroprotective effect of preconditioning: 10 μM, one hour incubation following 30 minutes of preconditioning OGD, cell death 24 hours after 120 minutes of harmful ischemia; for rapid ischemic tolerance: neuronal cultures, preconditioning ischemia
Description: (§1) Neurons were exposed to ischemic conditions, namely, oxygen and glucose deprivation (OGD), by washing the cells with phosphate-buffered saline (NaCl ([…]), KCl (2.7 mM), Na2HPO4 (10 mM), KH2PO4 (1.7 mM), pH 7.4) supplemented with 0.5 mM CaCl2, 1.0 mM MgCl2 and placing the cells (in culture dishes) in an anaerobic chamber (85% N2, 5% H2, 10% CO2; 35° C.) for 30 minutes (preconditioning ischemia) or 120 minutes (harmful ischemia).
Cell death was assessed 24 hours following 120 minutes of harmful ischemia using propidium iodide staining. Data shown are mean±S.E. (n=8). Data were analyzed by one-way ANOVA, with Bonferroni's post-hoc test. *, p<0.05.
Cells were incubated for one hour following 30 minutes of preconditioning OGD with either PD98059 or U0126 (both 10 μM), which are compounds that prevent p42/p44 MAPK activation by inhibiting an upstream regulatory MAPK kinase (MEK).

[2] = test system: HCC1419 cells; experiment: Cell death as LDH release (absorbance at 492 nm) in HCC1419 cells; type: cell-based; conditions: for pEC50: Homo sapiens, LDH release
Description: (§2) The stabilization of Bim in cells by blocking Bim degradation may sensitize the cells to an additional anti-cancer agent and promote cell death. […] Cell death was measured as a release of the enzyme lactate dehydrogenase (LDH), which is detected as absorbance at 492 nm.
(§3) Cells were incubated with various concentrations of doxorubicin (μM) for 72 h, in the absence (solid squares) or presence (open circles) of 100 μM U0126.

[3] = test system: Bim protein; experiment: Bim protein levels by immunoblot following preconditioning ischemia; type: cell-based, rat; conditions: for Bim degradation: following preconditioning ischemia
Description: as §1
Bim protein levels were determined by immunoblotting, and then the blots were re-probed with α-tubulin to control for loading.
(§4) In the top and middle panels of the figure, phosphorylation of p42/p44 MAPK was determined by immunoblot, and the blots were re-probed for total p42/p44 MAPK expression. In the bottom panel of the figure, cells were subjected to preconditioning ischemia and then recovered in the presence of U0126. Bim expression was determined by immunoblot. Data shown are representative of three independent experiments.
The effect of U0126 on Bim protein levels also was investigated following 30 minutes of OGD.

[4] = test system: p42/p44 MAPK
Description: as §4
As a control, the same blot was probed for non-phospho-p42/p44 MAPK.

[5] = test system: MCF-7 cells; experiment: Cell death as LDH release (absorbance at 492 nm) in MCF-7 cells; type: cell-based; conditions: 100 μM U0126
Description: as §2, §3

[6] = test system: Bim; conditions: following preconditioning ischemia
Description: The experiments described in this example investigate the degradation of the pro-apoptotic Bcl-2 family member Bim as a mechanism of rapid ischemic tolerance.

[7] = test system: GST-Bim polypeptide with TRIM2 protein; conditions: cells incubated with inhibitor, preconditioning ischemia
Description: To follow up on this observation, co-immunoprecipitation was utilized to determine whether TRIM2 binding to Bim correlates with the degradation of Bim following preconditioning ischemia in neuronal cultures. GST-Bim was incubated with cell lysates from control neurons (“CONT”; open bars) and neurons exposed to preconditioning ischemia (“PC”; hatched bars). GST-Bim interacting with TRIM2 then was co-immunoprecipitated with anti-TRIM 2 antibody and detected by immunoblot with an anti-GST antibody.

COc1cccc(-c2cc(=O)c3ccccc3o2)c1N [PD98059, 2-(2-Amino-3-methoxyphenyl)-4H-1-benzopyran-4-one]
neuroprotective effect of preconditioning [1]: blocked

N#CC(=C(/N)Sc1ccccc1N)/C(C#N)=C(\N)Sc1ccccc1N [U0126, 1,4-diamino-2,3-dicyano-1,4-bis(2-aminophenylthio)butadiene]
enhancement of doxorubicin-induced cell death ([2]; HCC1419 cells (low Bim:TRIM2 ratio), 100 μM U0126): enhancement | cell death (LDH release) ([2]; HCC1419 cells, U0126 alone): does not induce cell death | Bim protein expression in control-treated cells ([3]; control-treated cells, no preconditioning): no effect | Bim degradation [3]: reduced; also recorded: blocks | decrease in Bim protein expression at one hour following 30 minutes of preconditioning ischemia ([3]; recovery in the presence of U0126): blocked | neuroprotective effect of preconditioning [1]: blocked | rapid ischemic tolerance [1]: blocked rapid ischemic tolerance; also recorded: blocks | phosphorylation of MAPK in control cells ([4]; control cells treated with U0126 alone): no phosphorylation of MAPK | total levels of p42/p44 MAPK ([4]; following preconditioning ischemia or U0126 treatment): did not change | increase in p42/p44 MAPK phosphorylation following preconditioning ischemia ([4]; one hour following preconditioning ischemia): blocked | enhancement of doxorubicin-induced cell death ([5]; MCF-7 cells (high Bim:TRIM2 ratio)): not observed | Bim ubiquitination [6]: reduced | co-immunoprecipitation of GST-Bim polypeptide with TRIM2 protein [7]: reduced

COc1cccc2c1C(=O)c1c(O)c3c(c(O)c1C2=O)C[C@@](O)(C(=O)CO)C[C@@H]3O[C@H]1C[C@H](N)[C@H](O)[C@H](C)O1 [doxorubicin]
shift in the response to doxorubicin when U0126 is present ([2]; HCC1419 cells, 72 h, 100 μM U0126): leftward shift | pEC50 ([2]; HCC1419 cells, 72 h, absence of U0126, read-out: calculated EC50 of doxorubicin alone): 4.22 | pEC50 ([2]; HCC1419 cells, 72 h, presence of 100 μM U0126, read-out: calculated EC50 of doxorubicin when combined with U0126): 8.00 | responsiveness to combination of doxorubicin and U0126 relative to doxorubicin alone ([5]; MCF-7 cells, 72 h): no increased responsiveness

CC(C)C[C@@H](C=O)NC(=O)[C@H](CC(C)C)NC(=O)[C@H](CC(C)C)NC(=O)OCc1ccccc1 [MG-132] (Cbz-Leu-Leu-Leu-aldehyde)
Bim degradation [3]: prevented Bim degradation | rapid ischemic tolerance [1]: blocked rapid ischemic tolerance
